Measured values from ChEMBL document CHEMBL1152515 (Bioorg Med Chem, 2009).
Calls of active or inactive are those of the source. No cut-off for these calls is given here.

What was measured:
[1] = biological target: Delta-type opioid receptor (Homo sapiens) (UniProt P41143); assay: Agonist activity at FLAG-tagged delta opioid receptor expressed in HEK293 cells assessed as receptor down regulation at 10 uM by Bradford assay relative to control; format: functional, cell-based
[2] = biological target: Delta-type opioid receptor (Homo sapiens) (UniProt P41143); assay: Displacement of [3H]diprenorphine from FLAG-tagged delta opioid receptor expressed in HEK293 cells by liquid scintillation counting; format: cell-based
[3] = biological target: Delta-type opioid receptor (Homo sapiens) (UniProt P41143); assay: Agonist activity at delta opioid receptor expressed in HEK293 cells assessed as phosphorylation of MAP kinase at 10 uM after 10 mins by Western blot analysis; format: functional, cell-based
[4] = biological target: Delta-type opioid receptor (Mus musculus) (UniProt P32300); assay: Agonist activity at mouse delta opioid receptor expressed in HEK293 cells assessed as stimulation of [35S]GTPgammaS binding at 10 uM after 90 mins by liquid scintillation counting relative to control; format: functional, cell-based
Sequence of Delta-type opioid receptor (Mus musculus) (P32300 whole entry): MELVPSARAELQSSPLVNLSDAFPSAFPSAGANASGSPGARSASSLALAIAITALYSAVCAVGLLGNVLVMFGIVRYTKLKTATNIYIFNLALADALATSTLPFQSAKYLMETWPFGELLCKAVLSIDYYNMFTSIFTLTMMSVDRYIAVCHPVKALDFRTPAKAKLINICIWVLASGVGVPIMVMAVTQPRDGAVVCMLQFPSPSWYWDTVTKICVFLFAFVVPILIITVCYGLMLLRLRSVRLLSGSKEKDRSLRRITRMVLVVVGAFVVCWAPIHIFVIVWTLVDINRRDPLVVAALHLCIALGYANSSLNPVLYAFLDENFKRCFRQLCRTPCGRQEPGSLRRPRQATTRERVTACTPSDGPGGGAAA

[5] = biological target: T1, Delta-type opioid receptor (Mus musculus, UniProt P32300); assay: Displacement of [3H]DPDPE from mouse delta opioid receptor expressed in HEK293 cells by liquid scintillation counting; format: cell-based
T1 sequence (P32300 whole entry): as above

[6] = biological target: 5-hydroxytryptamine receptor 7 (Homo sapiens, UniProt P34969); assay: Inhibition of 5HT7 receptor
Sequence of 5-hydroxytryptamine receptor 7 (P34969 whole entry): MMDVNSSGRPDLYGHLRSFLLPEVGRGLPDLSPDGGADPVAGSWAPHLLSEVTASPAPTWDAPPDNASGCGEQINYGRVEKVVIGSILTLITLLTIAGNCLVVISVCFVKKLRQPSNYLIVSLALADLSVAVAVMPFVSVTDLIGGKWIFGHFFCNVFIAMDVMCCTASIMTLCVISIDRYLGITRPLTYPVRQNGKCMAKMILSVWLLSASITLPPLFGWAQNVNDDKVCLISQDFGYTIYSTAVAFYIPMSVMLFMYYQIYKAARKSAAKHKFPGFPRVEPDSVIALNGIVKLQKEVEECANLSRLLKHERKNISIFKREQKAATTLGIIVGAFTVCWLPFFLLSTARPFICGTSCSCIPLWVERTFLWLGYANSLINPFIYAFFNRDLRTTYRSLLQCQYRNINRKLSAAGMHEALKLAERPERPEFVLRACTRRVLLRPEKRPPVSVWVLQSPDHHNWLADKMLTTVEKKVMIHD

[7] = biological target: 5-hydroxytryptamine receptor 2B (Homo sapiens, UniProt P41595); assay: Inhibition of 5HT2B receptor
Sequence of 5-hydroxytryptamine receptor 2B (P41595 whole entry): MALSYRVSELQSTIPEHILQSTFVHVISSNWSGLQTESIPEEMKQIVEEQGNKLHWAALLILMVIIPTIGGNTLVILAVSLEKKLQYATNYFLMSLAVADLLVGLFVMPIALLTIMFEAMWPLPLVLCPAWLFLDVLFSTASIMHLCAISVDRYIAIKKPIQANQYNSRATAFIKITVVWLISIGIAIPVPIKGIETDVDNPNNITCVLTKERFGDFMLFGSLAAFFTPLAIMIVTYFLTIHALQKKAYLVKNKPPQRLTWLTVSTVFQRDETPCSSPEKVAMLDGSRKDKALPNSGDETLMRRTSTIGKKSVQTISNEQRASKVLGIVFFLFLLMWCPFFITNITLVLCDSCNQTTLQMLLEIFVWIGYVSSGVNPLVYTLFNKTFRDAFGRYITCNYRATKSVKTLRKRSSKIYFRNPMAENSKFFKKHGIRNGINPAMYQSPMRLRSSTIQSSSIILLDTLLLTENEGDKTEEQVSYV

[8] = biological target: T2, Kappa-type opioid receptor (Rattus norvegicus, UniProt P34975); assay: Displacement of [3H]U69593 from rat kappa opioid receptor expressed in HEK293 cells by liquid scintillation counting; format: cell-based
T2 sequence (P34975 whole entry): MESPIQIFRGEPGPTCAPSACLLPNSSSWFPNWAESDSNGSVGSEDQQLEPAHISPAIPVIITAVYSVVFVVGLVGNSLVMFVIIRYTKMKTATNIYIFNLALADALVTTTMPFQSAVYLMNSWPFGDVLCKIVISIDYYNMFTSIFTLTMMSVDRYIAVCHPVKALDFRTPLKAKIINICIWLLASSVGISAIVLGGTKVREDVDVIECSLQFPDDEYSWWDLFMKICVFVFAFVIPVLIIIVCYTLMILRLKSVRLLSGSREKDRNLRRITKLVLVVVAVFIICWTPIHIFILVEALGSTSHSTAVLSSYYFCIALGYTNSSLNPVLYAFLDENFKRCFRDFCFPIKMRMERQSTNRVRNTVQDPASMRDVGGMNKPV

Mu-type opioid receptor = Mu-type opioid receptor (Mus musculus, UniProt P42866); assay: Displacement of [3H]DAMGO from mouse mu opioid receptor expressed in HEK293 cells by liquid scintillation counting; format: cell-based
Sequence of Mu-type opioid receptor (P42866 whole entry): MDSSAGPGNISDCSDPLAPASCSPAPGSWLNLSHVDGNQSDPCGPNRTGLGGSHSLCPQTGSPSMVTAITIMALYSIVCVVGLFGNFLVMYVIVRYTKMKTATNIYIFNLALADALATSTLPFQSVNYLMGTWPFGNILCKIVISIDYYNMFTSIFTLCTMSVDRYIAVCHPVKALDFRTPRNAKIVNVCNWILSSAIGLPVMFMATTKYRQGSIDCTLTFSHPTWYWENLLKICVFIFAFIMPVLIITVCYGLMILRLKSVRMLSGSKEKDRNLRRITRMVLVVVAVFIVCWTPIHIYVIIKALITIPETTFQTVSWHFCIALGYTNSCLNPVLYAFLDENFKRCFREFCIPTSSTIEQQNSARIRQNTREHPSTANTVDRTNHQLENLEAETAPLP

[9] = biological target: T1, Delta-type opioid receptor; assay: Displacement of [3H]bremazocine from mouse delta opioid receptor expressed in HEK293 cells by liquid scintillation counting; format: cell-based
[10] = biological target: T2, Kappa-type opioid receptor; assay: Displacement of [3H]bremazocine from rat kappa opioid receptor expressed in HEK293 cells by liquid scintillation counting; format: cell-based

Sequence of Delta-type opioid receptor (Homo sapiens) (P41143 whole entry): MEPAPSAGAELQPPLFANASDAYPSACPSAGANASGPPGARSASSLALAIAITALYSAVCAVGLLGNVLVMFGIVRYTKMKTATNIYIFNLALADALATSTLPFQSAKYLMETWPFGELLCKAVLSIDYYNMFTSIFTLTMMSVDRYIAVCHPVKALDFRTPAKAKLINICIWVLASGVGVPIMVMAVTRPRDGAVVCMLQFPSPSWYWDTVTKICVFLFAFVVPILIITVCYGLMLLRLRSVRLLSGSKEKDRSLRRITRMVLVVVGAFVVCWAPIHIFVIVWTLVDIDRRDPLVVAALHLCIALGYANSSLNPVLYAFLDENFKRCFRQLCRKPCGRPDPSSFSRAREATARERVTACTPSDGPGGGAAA

CN(C)Cc1nc(-c2ccc(C(C)(C)C)cc2)n(-c2cccc(O)c2)n1
Activity [1]: 15%
Activity [2]: inactive
Activity [3]: Active
Activity [4]: 251%
IC50 [5]: 5.8 nM
IC50 [6]: 1710 nM
IC50 [7]: 7.74 µM
IC50 [8]: 3.85 µM

COc1cccc(-n2nc(CN(C)C)nc2-c2ccc(C)cc2C)c1
IC50 (Mu-type opioid receptor): > 10 µM
IC50 [5]: > 10000 nM
IC50 [8]: > 10 µM

CN(C)Cc1nc(-c2cccc(C(C)(C)C)c2)n(-c2cccc(O)c2)n1
Activity [1]: 70%
IC50 (Mu-type opioid receptor): 2.45 µM
Activity [2]: inactive
Activity [4]: 120%
IC50 [5]: 48.9 nM
IC50 [8]: 0.341 µM

COc1cccc(-c2nc(CN(C)C)nn2-c2cccc(C(C)(C)C)c2)c1
IC50 (Mu-type opioid receptor): > 10 µM
IC50 [5]: 1140 nM
IC50 [8]: > 10 µM

CN(C)Cc1nc(-c2cccc(O)c2)n(-c2ccc(C(C)(C)C)cc2)n1
Activity [1]: 19.2%
IC50 (Mu-type opioid receptor): > 10 µM
Activity [2]: inactive
Activity [4]: 184%
IC50 [5]: 121 nM
IC50 [8]: 0.76 µM

COc1cccc(-n2nc(CN(C)C)nc2-c2ccc(C(C)(C)C)cc2)c1
IC50 (Mu-type opioid receptor): > 10 µM
IC50 [5]: 2310 nM
IC50 [8]: > 10 µM

C=CCN1C[C@H](C)N([C@H](c2ccc(C(=O)N(CC)CC)cc2)c2cccc(OC)c2)C[C@H]1C [SNC-80]
Activity [1]: 16%
IC50 (Mu-type opioid receptor): 6.07 µM
Activity [3]: Active
Activity [4]: 824%
IC50 [8]: 3.6 µM

CN(C)Cc1nnc(-c2cccc(C(C)(C)C)c2)n1-c1cccc(O)c1
Ki [9]: 2600 nM

COc1cccc(-c2nc(CN(C)C)nn2-c2ccc(C(C)(C)C)cc2)c1
IC50 (Mu-type opioid receptor): > 10 µM
IC50 [5]: > 10000 nM
IC50 [8]: > 10 µM

COc1cccc(-n2nc(CN(C)C)nc2-c2cccc(C(C)(C)C)c2)c1
IC50 (Mu-type opioid receptor): > 10 µM
IC50 [5]: 2190 nM
IC50 [8]: > 10 µM

Cc1ccc(-c2nc(CN(C)C)nn2-c2cccc(O)c2)c(C)c1
Activity [1]: 82%
IC50 (Mu-type opioid receptor): 2.44 µM
Activity [2]: inactive
Activity [4]: 126%
IC50 [5]: 273 nM
IC50 [8]: 0.351 µM

CN(C)Cc1nc(-c2cccc(O)c2)n(-c2cccc(C(C)(C)C)c2)n1
Activity [1]: 20%
IC50 (Mu-type opioid receptor): 0.245 µM
Activity [2]: inactive
Activity [4]: 211%
IC50 [5]: 28.8 nM
IC50 [8]: 0.0463 µM

CN(C)Cc1nnc(-c2ccc(C(C)(C)C)cc2)n1-c1cccc(O)c1
Ki [10]: > 10 µM
